Among the data in patent US10519177B2, “Heterocyclic compounds and uses thereof” (Plexxikon Inc., priority 2013, dated 2019) are IC50 values, retold here.

Molecules are shown by their SMILES.

One assay has as its target BRD4-BD1 (44-164) (Homo sapiens (Human), UniProt O60885). Nature of the assay: Alphascreen binding assay BRD4-BD1. The conditions noted are these: BRD4(1) H4; read-out: Biochemical activity (IC50 μM) BRD4(1) H4. The gist of the method:
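His-tagged E. coli-expressed BRD4 BD1 (44-164) or BD1-BD2 (1-477) incubated 1 h at room temperature with biotinylated tetra-acetylated histone H4 1-21 peptide and compound in HEPES pH 7.5, NaCl, BSA, Triton X-100, DTT buffer. Ni-chelate/streptavidin AlphaScreen beads (7.5 µg/ml) added, read after 30 min; pIC50 from four-parameter fit.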

For another assay, the target named is BRD4-BD12 (1-477) (Homo sapiens (Human), UniProt O60885). Nature of the assay: Alphascreen binding assay BRD4-BD12. Conditions: BRD4(1 2) H4; read-out: Biochemical activity (IC50 μM) BRD4(1 2) H4. A digest of the protocol:
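First, compound was preincubated 1 h at room temperature with the His-tagged BRD4 protein (BD1 44-164 or tandem BD12 1-477) and acetylated H4 peptide. Next, donor and acceptor beads were added at 7.5 μg/ml final. After 30 min, AlphaScreen emission was recorded.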

Another assay relates to MV-4-11 cells. Nature of the assay: Oncology cell growth assay MV-4-11 (CellTiter Glo). The conditions noted are these: Homo sapiens, MV4-11, 72 h; read-out: Cell activity (IC50 μM) MV-4-11 3d-Growth. In kind it is cell-based. A digest of the protocol: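 MV-4-11 AML cells (MLL-AF4), 3000 per well, exposed to 8-point 1:3 compound titration from 10 μM top concentration (0.2% DMSO) for 72 h. Viability by CellTiter Glo luminescence, normalized to DMSO controls; pIC50 from four-parameter curve fit.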
A general note: Cellular ATP, detected with luciferase, serves as a proxy for viable cell number.

In the next assay the test system is bromodomain. Nature of the assay: at least one of the bromodomain cell assays of Example 57. The conditions noted are these: at least one of the bromodomain cell assays described in Example 57; read-out: IC50 in at least one of the bromodomain cell assays. The format is cell-based.

The term IC50 denotes the concentration needed to halve the response being measured. `Cc1noc(C)c1-c1cnc2c(C#CCO)cn(CC3CCC(F)(F)CC3)c2c1` [P-0264, 3-[1-[(4,4-difluorocyclohexyl)methyl]-6-(3,5-dimethylisoxazol-4-yl)pyrrolo[3,2-b]pyridin-3-yl]prop-2-yn-1-ol]: the IC50 at BRD4-BD1 (44-164) is less than 1 µM; on BRD4-BD12 (1-477), 1 to 10 µM; with MV-4-11 cells it was less than 1 µM; with bromodomain it was less than 10 µM.

In the case of `Cc1noc(C)c1-c1cnc2c(-c3cnn(CC(F)(F)F)c3)c[nH]c2c1` [P-0265, 3,5-dimethyl-4-[3-[1-(2,2,2-trifluoroethyl)pyrazol-4-yl]-1H-pyrrolo[3,2-b]pyridin-6-yl]isoxazole], the half-inhibitory concentration (IC50) on BRD4-BD1 (44-164) is less than 1 µM; on BRD4-BD12 (1-477), less than 1 µM; with MV-4-11 cells, less than 1 µM; in the assay on bromodomain, less than 10 µM.

As to `Cc1noc(C)c1-c1cnc2c(-c3cnn(CC(F)(F)F)c3)cn(C(CC#N)C3CCCC3)c2c1` (centres unmarked) [P-0266, 3-cyclopentyl-3-[6-(3,5-dimethylisoxazol-4-yl)-3-[1-(2,2,2-trifluoroethyl)pyrazol-4-yl]pyrrolo[3,2-b]pyridin-1-vl]propanenitrile], the IC50 on BRD4-BD1 (44-164) was less than 1 µM; at BRD4-BD12 (1-477) it was less than 1 µM; in the assay on MV-4-11 cells, less than 1 µM; in the assay on bromodomain, less than 10 µM.

With `Cc1noc(C)c1-c1cnc2c(-c3cccnc3)cn(C(C)c3ccccc3)c2c1` (centres unmarked) [P-0267], the IC50 at BRD4-BD1 (44-164) was less than 1 µM; on BRD4-BD12 (1-477), less than 1 µM; in the assay with MV-4-11 cells, less than 1 µM; in the assay on bromodomain, less than 10 µM.

Regarding `Cc1noc(C)c1-c1cnc2c(-c3ccnc(C4CC4)c3)cn(C(C)c3ccccc3)c2c1` (centres unmarked) [P-0268, 4-[3-(2-cyclopropyl-4-pyridyl)-1-(1-phenylethyl)pyrrolo[3,2-b]pyridin-6-yl]-3,5-dimethyl-isoxazole], the half-inhibitory concentration (IC50) at BRD4-BD1 (44-164) is less than 1 µM; on BRD4-BD12 (1-477), less than 1 µM; in the assay on MV-4-11 cells, less than 1 µM; in the assay on bromodomain, less than 10 µM.

Turning to `Cc1noc(C)c1-c1cnc2c(-c3ccc(Cl)cc3)cn(C(C)c3ccccc3)c2c1` (centres unmarked) [P-0269, 4-[3-(4-chlorophenyl)-1-(1-phenylethyl)pyrrolo[3,2-b]pyridin-6-yl]-3,5-dimethyl-isoxazole], the IC50 at BRD4-BD1 (44-164) is less than 1 µM; on BRD4-BD12 (1-477) it was less than 1 µM; in the assay with MV-4-11 cells, 1 to 10 µM; in the assay with bromodomain, less than 10 µM.

As to `Cc1noc(C)c1-c1cnc2c(-c3ccc(O)nc3)cn(C(C)c3ccccc3)c2c1` (centres unmarked) [P-0270, 5-[6-(3,5-dimethylisoxazol-4-yl)-1-(1-phenylethyl)pyrrolo[3,2-b]pyridin-3-yl]pyridin-2-ol], the IC50 was less than 1 µM at BRD4-BD1 (44-164), less than 1 µM on BRD4-BD12 (1-477), less than 1 µM in the assay on MV-4-11 cells and less than 10 µM in the assay on bromodomain.

For the molecule `COc1ccc(-c2cn(C(C)c3ccccc3)c3cc(-c4c(C)noc4C)cnc23)cn1` (centres unmarked) [P-0271, 4-[3-(6-methoxy-3-pyridyl)-1-(1-phenylethyl)pyrrolo[3,2-b]pyridin-6-yl]-3,5-dimethyl-isoxazole], the IC50 at BRD4-BD1 (44-164) is less than 1 µM; at BRD4-BD12 (1-477), less than 1 µM; with MV-4-11 cells, less than 1 µM; in the assay on bromodomain, less than 10 µM.

Turning to `Cc1ccc(-c2cn(C(C)c3ccccc3)c3cc(-c4c(C)noc4C)cnc23)cn1` (centres unmarked) [P-0272, 3,5-dimethyl-4-[3-(6-methyl-3-pyridyl)-1-(1-phenylethyl)pyrrolo[3,2-b]pyridin-6-yl]isoxazole], the IC50 on BRD4-BD1 (44-164) is less than 1 µM; on BRD4-BD12 (1-477), less than 1 µM; with MV-4-11 cells, less than 1 µM; in the assay on bromodomain, less than 10 µM.

For the molecule `Cc1noc(C)c1-c1cnc2c(-c3ccc(C(=O)O)cc3)cn(C(C)c3ccccc3)c2c1` (centres unmarked) [P-0273, 4-[6-(3,5-dimethylisoxazol-4-yl)-1-(1-phenylethyl)pyrrolo[3,2-b]pyridin-3-yl]benzoic acid], the half-inhibitory concentration (IC50) on BRD4-BD1 (44-164) is less than 1 µM; on BRD4-BD12 (1-477), less than 1 µM; with MV-4-11 cells, less than 1 µM; in the assay with bromodomain, less than 10 µM.

Consider `Cc1noc(C)c1-c1cnc2c(-c3ccc(=O)n(C)c3)cn(C(C)c3ccccc3)c2c1` (centres unmarked) [P-0274, 5-[6-(3,5-dimethylisoxazol-4-yl)-1-(1-phenylethyl)pyrrolo[3,2-b]pyridin-3-yl]-1-methyl-pyridin-2-one], for which the IC50 is less than 1 µM on BRD4-BD1 (44-164), less than 1 µM on BRD4-BD12 (1-477), less than 1 µM in the assay on MV-4-11 cells and less than 10 µM in the assay with bromodomain.

For `COc1ncc(-c2cn(C(C)c3ccccc3)c3cc(-c4c(C)noc4C)cnc23)cn1` (centres unmarked) [P-0275, 4-[3-(2-methoxypyrimidin-5-yl)-1-(1-phenylethyl)pyrrolo[3,2-b]pyridin-6-yl]-3,5-dimethyl-isoxazole], the IC50 at BRD4-BD1 (44-164) is less than 1 µM; on BRD4-BD12 (1-477) it was less than 1 µM; in the assay with MV-4-11 cells, less than 1 µM; in the assay with bromodomain it was less than 10 µM.

Turning to `Cc1noc(C)c1-c1cnc2c(-c3ccc(N)nc3)cn(C(C)c3ccccc3)c2c1` (centres unmarked) [P-0276, 5-[6-(3,5-dimethylisoxazol-4-yl)-1-(1-phenylethyl)pyrrolo[3,2-b]pyridin-3-yl]pyridin-2-amine], the IC50 on BRD4-BD1 (44-164) is less than 1 µM; on BRD4-BD12 (1-477), less than 1 µM; with MV-4-11 cells, less than 1 µM; in the assay with bromodomain it was less than 10 µM.

For the molecule `Cc1noc(C)c1-c1cnc2c(-c3cnc(N)nc3)cn(C(C)c3ccccc3)c2c1` (centres unmarked) [P-0277, 5-[6-(3,5-dimethylisoxazol-4-yl)-1-(1-phenylethyl)pyrrolo[3,2-b]pyridin-3-yl]pyrimidin-2-amine], the IC50 at BRD4-BD1 (44-164) is less than 1 µM; at BRD4-BD12 (1-477), less than 1 µM; with MV-4-11 cells it was less than 1 µM; in the assay with bromodomain, less than 10 µM.

`Cc1noc(C)c1-c1cnc2c(-c3cnc(C4CC4)nc3)cn(C(C)c3ccccc3)c2c1` (centres unmarked) [P-0278, 4-[3-(2-cyclopropylpyrimidin-5-yl)-1-(1-phenylethyl)pyrrolo[3,2-b]pyridin-6-yl]-3,5-dimethyl-isoxazole]: the IC50 on BRD4-BD1 (44-164) is less than 1 µM; on BRD4-BD12 (1-477), less than 1 µM; in the assay with MV-4-11 cells it was less than 1 µM; with bromodomain it was less than 10 µM.

In the case of `Cc1noc(C)c1-c1cnc2c(-c3cnc(N)cn3)cn(C(C)c3ccccc3)c2c1` (centres unmarked) [P-0279, 5-[6-(3,5-dimethylisoxazol-4-yl)-1-(1-phenylethyl)pyrrolo[3,2-b]pyridin-3-yl]pyrazin-2-amine], the IC50 was less than 1 µM on BRD4-BD1 (44-164), less than 1 µM at BRD4-BD12 (1-477), less than 1 µM in the assay on MV-4-11 cells and less than 10 µM in the assay with bromodomain.

Turning to `Cc1noc(C)c1-c1cnc2c(Br)cn(C(CC#N)C3CCCC3)c2c1` (centres unmarked) [P-0280, 3-[3-bromo-6-(3,5-dimethylisoxazol-4-yl)pyrrolo[3,2-b]pyridin-1-yl]-3-cyclopentyl-propanenitrile], the IC50 on BRD4-BD1 (44-164) was less than 1 µM; at BRD4-BD12 (1-477), less than 1 µM; in the assay with MV-4-11 cells, less than 1 µM; in the assay with bromodomain, less than 10 µM.

`Cc1noc(C)c1-c1cnc2c(Br)cn(CC3CCC(F)(F)CC3)c2c1` [P-0281, 4-[3-bromo-1-[(4,4-difluorocyclohexyl)methyl]pyrrolo[3,2-b]pyridin-6-yl]-3,5-dimethyl-isoxazole]: the half-maximal inhibitory concentration (IC50) at BRD4-BD1 (44-164) is less than 1 µM; at BRD4-BD12 (1-477), less than 1 µM; in the assay with MV-4-11 cells, less than 1 µM; with bromodomain, less than 10 µM.

`Cc1noc(C)c1-c1cnc2ccn(CC3CCC(F)(F)CC3)c2c1` [P-0282, 4-[1-[(4,4-difluorocyclohexyl)methyl]pyrrolo[3,2-b]pyridin-6-yl]-3,5-dimethyl-isoxazole]: the IC50 on BRD4-BD1 (44-164) is less than 1 µM; at BRD4-BD12 (1-477), 1 to 10 µM; in the assay on MV-4-11 cells, less than 1 µM; in the assay with bromodomain it was less than 10 µM.

Turning to `Cc1oncc1-c1cnc2ccn(CC3CCC(F)(F)CC3)c2c1` [P-0283, 4-[1-[(4,4-difluorocyclohexyl)methyl]pyrrolo[3,2-b]pyridin-6-yl]-5-methyl-isoxazole], the IC50 on BRD4-BD1 (44-164) was 1 to 10 µM; at BRD4-BD12 (1-477), 1 to 10 µM; in the assay on MV-4-11 cells, 1 to 10 µM; in the assay with bromodomain, less than 10 µM.

For the molecule `Oc1ccc(-c2cnc3ccn(CC4CCC(F)(F)CC4)c3c2)cn1` [P-0284, 5-[1-[(4,4-difluorocyclohexyl)methyl]pyrrolo[3,2-b]pyridin-6-yl]pyridin-2-ol], the half-maximal inhibitory concentration (IC50) is less than 1 µM at BRD4-BD1 (44-164), 1 to 10 µM at BRD4-BD12 (1-477), 1 to 10 µM with MV-4-11 cells and less than 10 µM in the assay with bromodomain.

`Cc1n[nH]c(C)c1-c1cnc2ccn(CC3CCC(F)(F)CC3)c2c1` [P-0285, l-[(4,4-difluorocyclohexyl)methyl]-6-(3,5-dimethyl-1H-pyrazol-4-yl)pyrrolo[3,2-b]pyridine]: the IC50 on BRD4-BD1 (44-164) was 1 to 10 µM; on BRD4-BD12 (1-477) it was 10 to 200 µM; in the assay on MV-4-11 cells, 1 to 10 µM; in the assay on bromodomain, less than 10 µM.

Consider `Cc1n[nH]c(C)c1-c1cn(C(C)c2ccccc2)c2cc(-c3c(C)noc3C)cnc12` (centres unmarked) [P-0287, 4-[3-(3,5-dimethyl-1H-pyrazol-4-yl)-1-(1-phenylethyl)pyrrolo[3,2-b]pyridin-6-yl]-3,5-dimethyl-isoxazole], for which the IC50 is less than 1 µM at BRD4-BD1 (44-164), less than 1 µM on BRD4-BD12 (1-477), less than 1 µM in the assay with MV-4-11 cells and less than 10 µM in the assay with bromodomain.
